Source: patent US12383158B2, “Detection of high-risk unstable atherosclerotic plaque” (The Heart Research Institute Ltd, priority 2018, dated 2025)

Key:
[1] = molecular target: T1, MPO activity in atherosclerotic plaque (Mus musculus, UniProt P11247); conditions: for CNR of unstable plaque in the right carotid artery, 30 min after contrast injection / CNR of unstable plaque in the right carotid artery, 60 min after contrast injection: mean±SD
T1 sequence (P11247 139-718): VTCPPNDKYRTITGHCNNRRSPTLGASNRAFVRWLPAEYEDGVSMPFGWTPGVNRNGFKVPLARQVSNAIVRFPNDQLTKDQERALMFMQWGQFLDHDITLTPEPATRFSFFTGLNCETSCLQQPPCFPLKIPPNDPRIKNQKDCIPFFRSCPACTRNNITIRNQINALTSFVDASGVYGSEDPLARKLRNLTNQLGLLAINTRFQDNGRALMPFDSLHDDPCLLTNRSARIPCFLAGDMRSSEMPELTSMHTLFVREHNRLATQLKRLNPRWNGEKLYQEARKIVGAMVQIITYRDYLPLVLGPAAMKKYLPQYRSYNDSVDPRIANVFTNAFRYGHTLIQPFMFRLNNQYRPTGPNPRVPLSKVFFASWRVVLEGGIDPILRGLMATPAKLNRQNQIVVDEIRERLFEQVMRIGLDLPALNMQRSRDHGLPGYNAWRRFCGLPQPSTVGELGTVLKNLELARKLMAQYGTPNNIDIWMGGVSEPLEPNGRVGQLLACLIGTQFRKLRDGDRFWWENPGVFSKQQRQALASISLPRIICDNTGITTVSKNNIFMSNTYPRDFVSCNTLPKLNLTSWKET
Excerpt: Scheme of action of bis-5HT-DTPA-Gd (MPO-Gd) and magnetic resonance imaging protocol. A, In the presence of H2O2, MPO oxidises the 5-hydroxytryptamine moiety of MPO-Gd to a phenoxyl radical, which then can give rise to either an MPO-Gd dimer or multimer (not shown) to amplify the signal. The phenoxyl radical-containing MPO-Gd may also covalently bind to proteins. […] B, Mice were imaged under isoflurane anaesthesia. Initial acquisition involved a localiser, time-of-flight and T1-weighted turbo spin echo (T1-TSE) imaging. Approximately 30 μmin after acquisition of baseline images, MPO-Gd (0.3 mmol/kg) was injected intravenously via the tail vein. Consecutive T1-TSE images were then acquired for 60 μmin following contrast injection. Segmental analysis of MPO activity was assessed by calculating the ΔCNR (CNRpost-contrast−CNRpre-contrast) for unstable and stable plaque, and non-diseased arterial segments.
At 7 weeks following TS surgery, isoflurane-anaesthetised mice were imaged in the prone position using a 9.4T Bruker Biospec 94/20 Avance III system (Bruker, Ettlingen, Germany) with a 50-mm quadrature radiofrequency coil and respiratory-gated image acquisition. Mice were imaged before and after intravenous administration of 0.3 μmmol/kg of the MPO sensor bis-5-hydroxytryptamide-DTPA Gd (MPO-Gd) or DTPA-Gd (Magnevist, Bayer, Leverkusen, Germany) via a tail vein catheter. Prior to contrast injection, a flow-compensated 2D-FLASH time-of-flight (TOF) angiography in a coronal slice orientation was performed to assess intra-vessel (luminal) volume and geometry using a flow compensated 2D-GRE sequence (FLASH) for time-of-flight (TOF) angiography in an axial slice orientation with the following major parameters: TR 34 μms, TE 3 μms, slice thickness 0.5 μmm, interslice distance 0.35 μmm, 40 slices, matrix size 128×128, FOV 20×20 μmm, in-plane resolution 156×156 μm. This was followed by a T1-weighted fast spin echo (TurboRARE, T1-TSE) acquired in the same orientation with the following parameters: TR 1500 μms, TE 8.5 μms, ETL 8, slice thickness 1 μmm, FOV 20×20 μmm, matrix size 192×192, in-plane resolution 104×104 μm. This T1-TSE protocol was then repeated in a scan series covering a period of one hour following contrast injection to assess contrast agent inflow and retention. OsiriX (Version 7.0, Pixmeo, Switzerland) was used for image analysis. In T1-TSE images, separate regions of interest were assigned to the vessel wall, skeletal muscle (reference) and background (air). The contrast-to-noise ratio (CNR) was calculated as follows: CNR=(SIvessel wall−SIskeletal muscle)/SDbackground The mean CNRs of three consecutive slices in plaque with unstable phenotype and corresponding segments of the left carotid artery (plaque-free), in addition to 1-2 consecutive slices in the brachiocephalic trunk (stable plaque, SP), were calculated. Segmental enhancement attributable to MPO was assessed by calculating the ΔCNR=CNRpost-contrast−CNRpre-contrast.

[2] = mouse, in vivo
Description: Nuclear microscopy experiments were performed at the Centre for Ion Beam Applications at the National University of Singapore, as described previously.6 Briefly, the samples were mounted onto a 3-axis stage within a scattering chamber maintained at <5×10−6 μmbar. A collimated proton beam (H+) at 2.1 MeV was generated using a 3.5 MV Singletron accelerator and kept incident onto the samples inclined at 45 degrees to the incident beam. The broad incident ion beam was focused down to a spot size of 1 μm and scanned across the region of interest. […]
PIXE data was collected using a Si(Li) detector placed at 20 μmm from the samples to the Si(Li) crystal face. RBS and STIM data were measured by a passivated implanted planar silicon (PIPS) detector. […]
Scanning transmission ion microscopy provides structural maps based on the energy lost by the protons as they pass through the relatively thin organic samples with thicknesses of 30 μm or less, enabling structural identification without fixing or staining. Trace elemental mapping was performed using particle-induced X-ray emission, which simultaneously provides multiple elements with high quantitative accuracy and sensitivity to a few parts per million in biological materials. […]

[3] = TS Apoe−/− mice, 0.3 mmol/kg i.v.

SMILES	CNR of unstable plaque in the right carotid artery, 30 min after contrast injection [1, 3]	CNR of unstable plaque in the right carotid artery, 60 min after contrast injection [1, 3]	Gd content of unstable plaque [2]	enhancement of the right carotid artery in TS Mpo−/−Apoe−/− mice ([1]; 60 min, compared with Apoe−/− mice)	enhancement of the brachiocephalic artery (stable plaque) [1, 3]	enhancement of the non-diseased vessel wall of the left carotid artery [1, 3]	period within which the enhancing material is washed out/eliminated from Segment I ([1]; mouse, in vivo)	plaque specificity of enhancement 1 week after TS surgery ([1]; unstable plaque (Segment I) vs stable plaque (brachiocephalic artery))
CNC[C@H](O)[C@@H](O)[C@H](O)[C@H](O)CO.CNC[C@H](O)[C@@H](O)[C@H](O)[C@H](O)CO.O=C([O-])CN(CCN(CC(=O)[O-])CC(=O)O)CCN(CC(=O)[O-])CC(=O)O.[Gd+3] [DTPA-Gd]	19.2±7.2	13.4±3.6	–	–	–	–	–	–
O=C([O-])CN(CCN(CC(=O)[O-])CC(=O)NCCc1c[nH]c2ccc(O)cc12)CCN(CC(=O)[O-])CC(=O)NCCc1c[nH]c2ccc(O)cc12.[Gd+3] [MPO-Gd, bis-5-hydroxytryptamide-DTPA Gd]	23.7±6.8	25±6.4	significant accumulation of Gd	attenuated enhancement	did not result in significant sustained enhancement	no significant enhancement	< 2 weeks	seen only in unstable plaque
